Tests used:
[1] = test system: Lck/JAK/STAT3 signaling; experiment: NKG2D expression with CD80-Fc plus inhibitors of STAT3 activation, mouse CD8^+ T cells; format: cell-based; conditions: 24 h
Description: (§1) FIGS. 24A-24B: Blockade of Lck/JAK/STAT3 signaling abolishes CD28 activation-mediated induction of NKG2D expression on mouse and human CD8^+ T cells. (A, B) Mouse (A) and human (B) CD8^+ T cells were stimulated with anti-CD3 microbeads and treated with control Fc or CD80-FC in the presence or absence of the pharmacologic inhibitor JSI-124, PP2, or AG-490 for 24 h. The CD80+ vehicle has the highest expression of NKG2D. NKG2D expression on the surface of CD8^+ T cells was measured using flow cytometry. The bar graphs show the median (±SEM) MFI of NKG2D (n=3). The data are representative of three repeated experiments.
(§2) If NKG2D expression is induced by CD80-Fc-based treatment via pSTAT3, inhibition of any upstream activators of STAT3 should abrogate NKG2D induction. A time course study was performed to assess the toxicity of the pharmacologic inhibitors to mouse and human CD8^+ T cells. […] Therefore, to test the hypothesis, mouse and human CD8^+ T cells were enriched and treated with control Fc, CD80-Fc plus control vehicle, or CD80-Fc plus inhibitors of STAT3 activation, including PP2, AG490, and JSI-124, for 24 h.

[2] = test system: STAT3; experiment: Immunoblot of pSTAT3 with pharmacologic inhibitors, human CD8^+ T cells; format: cell-based; conditions: PP2 (1 nM); 1 h
Description: (§3) FIG. 23: Elevated STAT3 phosphorylation resulting from CD80 binding-mediated CD28 activation via the tyrosine kinase Lck/JAK/STAT3 signaling pathway. The effect of CD28 activation and treatment with pharmacologic inhibitors on the expression of pSTAT, total STAT, and b-actin according to immunoblot assay. Mouse and human CD8^+ T cells were stimulated with anti-CD3 microbeads and treated with ctrl Fc or CD80-Fc in the presence or absence of the pharmacologic inhibitor JSI-124 […], PP2 (1 nM), or AG-490 ([…]) for 24 h. Vehicle control is included. The intensity quantification shown ([…]/intensity of β-actin) represents the mean intensity from three repeated experiments.
(§4) Because NKG2D expression on NK cells is regulated by pSTAT3, the next question was whether pSTAT3 expression is induced in CD8^+ T cells by activation of CD28. To address this question, the pSTAT3 expression was measured in both mouse and human CD8^+ T cells after incubation with control IgG or CD80-Fc for 15 and 30 min, as well as 1 and 2 h via intracellular flow cytometric staining. […] Given that CD28 activation in CD8^+ T cells results in STAT3 phosphorylation, it was sought to determine how CD28 activates JAK/STAT3 signaling in CD8^+ T cells. In these cells, the co-stimulatory receptor CD28 strengthens TCR signaling via sustained activation of the tyrosine kinase Lck which in turn recruits and activates ZAP70. […] Thus a pharmacologic model was established to determine whether Lck/ZAP70, as an upstream kinase cascade, activates STAT3 in CD8^+ T cells. Mouse and human CD8^+ T cells were enriched (FIG. 29) and stimulated with anti-CD3 microbeads and incubated with control IgG or CD80-Fc in the presence or absence of the pharmacologic inhibitor PP2, AG-490, or JSI-124 for 1 h. PP2 was employed because it is a specific Src-family kinase inhibitor sensitive to blockade of Lck activation. Also, AG-490 can inhibit activation of JAK/STAT3 signaling. […] To validate the crucial role of pSTAT3, the expression of pSTAT1 and pSTAT5 was also assessed. […]

[3] = test system: Lck/JAK/STAT3 signaling; experiment: NKG2D expression with CD80-Fc plus inhibitors of STAT3 activation, human CD8^+ T cells; format: cell-based; conditions: 24 h
Description: as §1, §2

[4] = test system: STAT3; experiment: Immunoblot of pSTAT3 with pharmacologic inhibitors, mouse CD8^+ T cells; format: cell-based; conditions: PP2 (1 nM); 1 h
Description: as §3, §4

[5] = Degranulation assay (CD107a), human CD8^+ T cells exposed to K562 cells; format: cell-based; conditions: 24 h treatment
Description: (§5) FIGS. 25A-25D: Augmentation of CD8^+ T-cell antitumor cytolytic activity by treatment with CD80-Fc. (A-C) Induction of antitumor cytolytic activity by mouse CD8^+ T cells after exposure to Rae-1^+ LLC cells. Splenocytes were collected from LLC-bearing mice on day 14 after tumor-cell inoculation. CD8^+ T cells were isolated from splenocytes and treated with control Fc or CD80-Fc in the presence or absence of an anti-NKG2D antibody or JSI-124 for 24 h. (A) CD8^+ T cells were co-incubated with CFSE-labeled LLC cells at a ratio of 25:1 (E:T) for 5 h. The cell culture medium was subjected to ELISA analysis of perforin. The bar graphs show the median (±SEM) normalized concentration of perforin (n=3). (B) Flow cytometry analysis of NKG2D ligand Rae-1 expression on LLC tumor cells. (C) CD8^+ T cells were co-incubated with CFSE-labeled LLC cells at ratios of 5:1, 10:1, and 25:1 (E:T) for 5 h. After incubation, the cells were stained with PI (1 mg/mL). […] Survival of the target cells was measured as the percentage of normalized target cells that remained after incubation with CD8^+ T cells. […]
(§6) In a similar manner, the cytolytic activity of human CD8^+ T cells was assessed in terms of their degranulation upon CD28 activation. The ability of CD8^+ T cells to undergo degranulation was evaluated in response to exposure to target tumor cells by the induction of cell surface marker CD107a. […]

[6] = test system: K562 cells; experiment: as above; format: cell-based; conditions: after exposure to target cells, ratio 1:1, 4 h
Description: as §5, §6

[7] = test system: human CD8^+ T cells; experiment: CD8^+ T cell viability after JSI-124 (7-AAD), human; format: cell-based; conditions: 48 h, JSI-124 0.1 μM, versus vehicle control
Description: (§7) FIGS. 30A-30B: CD8^+ T cell viability after JSI-124 treatment. Freshly enriched mouse (A) and human (B) CD8^+ T cells were treated with vehicle control or JSI-124 (0.1 μM) for 1, 2, 3, and 4 days. Cell viability was assessed after 7-AAD staining via flow cytometry.
as §2

[8] = test system: LLC cells; experiment: Cytotoxic T-lymphocyte assay against CFSE-labeled LLC cells; format: cell-based, mouse; conditions: E:T 5:1, 10:1, 25:1, 5 h
Description: as §5, with “h.” for “h. After incubation, the cells were stained with PI (1 mg/mL).”
Because increased perforin expression by immune cells often indicates enhanced antitumor cytolytic activity, the cytotoxic T-lymphocyte activity of mouse CD8^+ T cells was measured after CD80-Fc-based treatment. […] The survival of target cells was determined as the percentage of normalized target cells that remained after incubation with CD8^+ T cells. […]

[9] = test system: mouse CD8^+ T cells; experiment: CD8^+ T cell viability after JSI-124 (7-AAD), mouse; format: cell-based; conditions: 48 h, JSI-124 0.1 μM, versus vehicle control
Description: as §7, §2

SMILES	NKG2D expression on CD8^+ T cells [1]	phosphorylation of STAT3 in response to CD80-Fc [2]	NKG2D expression on CD8^+ T cells [3]	phosphorylation of STAT3 in response to CD80-Fc [4]	NKG2D expression [5]	degranulation (CD107a) [6]	cell viability [7]	cytolytic activity against LLC cells [8]	cell viability [9]
N#C/C(=C/c1ccc(O)c(O)c1)C(=O)NCc1ccccc1 [AG-490]	dramatic decreases	completed abolished	dramatic decreases	completed abolished					
CC(C)(O)/C=C/C(=O)[C@](C)(O)[C@H]1[C@H](O)C[C@@]2(C)[C@@H]3CC=C4[C@@H](C=C(O)C(=O)C4(C)C)[C@]3(C)C(=O)C[C@]12C [JSI-124]	dramatic decreases	completed abolished	dramatic decreases	completed abolished	abolished NKG2D expression	reduced degranulation	markedly decreased	impaired the cytolytic activity	markedly decreased
CC(C)(C)n1nc(-c2ccc(Cl)cc2)c2c(N)ncnc21 [PP2]	dramatic decreases	completed abolished	dramatic decreases	completed abolished					
